Experimental data reported in patent US9073880B2, “2-(2-phenylethenyl) 1,3-benzodiazepine derivatives useful for the treatment of cancer” (Yissum Research Development Company of the Hebrew …, priority 2010, dated 2015).

How the values were obtained:
[1] = test system: human prostate carcinoma PC3 cells; experiment: Cell proliferation, PC3 (Example 2); type: cell-based; conditions: PC-3, 72 hours, 0.1% DMSO, methylene blue
Procedure: (§1) Human ovary cancer A2780 cells lines were seeded at a density of 5000 cells/well, human melanoma A375 cells were plated at a density of 2,500 cells/well, human colon carcinoma HCT15 cells were plated at a density of 3,000 cells/well, human prostate carcinoma PC3 cells were plated at a density of 1,500 cells/well, human breast carcinoma MCF7 cells were plated at a density of 5,000 cells/well, human breast carcinoma MDA MB 468 cells were plated at a density of 6,000 cells/well, human myeloma U266, RPMI8226 and CAG cells were plated at a density of 10,000 cells/well. All cells were plated in 96-well plates in 90 μl growth medium containing 10% FCS, 100 units/ml penicillin and 100 μg/ml streptomycin. Compound 3 was added a day later in […] of 1% DMSO in DDW to obtain final concentrations of 0, 0.1, 0.3, 1, 3, and 10 μM. The final concentration of DMSO (0.1% DMSO) was kept constant in all samples. […] The optical density values were read at 630 nm in ELISA plate reader. Non-adhered cells were exposed to WST-1 reagent for 5 hours following 72 hours treatment with the inhibitors, and optical density values were read at 630 nm in ELISA plate reader. The data was analyzed in Microsoft Excel, using the vehicle control as 100% proliferation. […]

[2] = test system: human melanoma A375 cells; experiment: Cell proliferation, A375 (Example 2); type: cell-based; conditions: A-375, 72 hours, 0.1% DMSO, methylene blue
Procedure: as §1

IRS1 = IRS1 levels and serine phosphorylation in MCF7 cells (western blot, time course); type: cell-based, human; conditions: 10 μM
Procedure: (§2) Tyrosine autophosphorylation of the β-subunit of IGF-1R as well as downstream signaling induced by IGF-1R were assayed in human breast cancer MCF7 cells and in melanoma A375 cells. Cells were seeded in 6-well plates (250,000 A375 cells/well and 300,000 MCF7 cells/well) and 24 hours later medium was replaced by serum-free medium (RPMI supplemented with 100 units/ml penicillin and 100 μg/ml streptomycin). MCF7 cells were exposed for 48 hr to compound 3 at 10 μM concentration, and then stimulated for 5 minutes with 50 ng/ml IGF-1, washed twice with PBS and lysed by boiling sample buffer (10% glycerol, 50 mM Tris-HCl, pH 6.8, 3% SDS, and 5% (3-mercaptoethanol). Equal amounts of protein per lane were separated by 8% SDS-PAGE and transferred to a nitrocellulose membrane (Sartorius AG). Phosphorylated proteins were immunoblotted with anti-phosphoIGF-1R (pIGF-1R), anti-phosphotyrosine-IRS1 (pY-IRS I) and anti-phospho(T308)Akt (pPKB) antibodies. Detection was performed with horseradish peroxidase-conjugated secondary antibody using the ECL system. Blots were then stripped of antibodies, blocked with TBST with 5% low fat milk and re-probed with antibodies detecting both the phosphorylated and the non-phosphorylated corresponding proteins e.g. IGF-1Rβ, IRS1 and PKB. […]

PKB/Akt = experiment: IGF1-induced PKB/Akt activation in A375 cells (Example 3); type: cell-based, human; conditions: melanoma A375 cells treated 4 hr, 1 and 3 μM; FIG. 4
Procedure: as §2, with “system.” for “system. Blots were then stripped of antibodies, blocked with TBST with 5% low fat milk and re-probed with antibodies detecting both the phosphorylated and the non-phosphorylated corresponding proteins e.g. IGF-1Rβ, IRS1 and PKB.”
In addition, lysates of human melanoma A375 cells were prepared from cells exposed to compound 3 at 1 and 3 μM concentrations in serum-free medium. […] In this experiment the phosphorylated form of IRS1 on Serine-636/639 and the levels of IRS2 were detected as well.

[3] = test system: human colon carcinoma HCT15 cells; experiment: Cell proliferation, HCT15 (Example 2); type: cell-based; conditions: HCT-15, 72 hours, 0.1% DMSO, methylene blue
Procedure: as §1

human myeloma CAG cells = experiment: Cell proliferation, CAG (Example 2); type: cell-based; conditions: multiple myeloma, 72 hours, 0.1% DMSO, WST-1
Procedure: as §1

IGF-1R = molecular target: T1, IGF-1R (Homo sapiens, UniProt P08069); experiment: IGF1-induced IGF-1R auto-phosphorylation in MCF7 cells (western blot); type: cell-based; conditions: 10 μM, FIG. 3
T1 construct: endogenous in cells; host or cells: MCF7 human breast cancer cells
Procedure: Tyrosine autophosphorylation of the β-subunit of IGF-1R as well as downstream signaling induced by IGF-1R were assayed in human breast cancer MCF7 cells and in melanoma A375 cells. Cells were seeded in 6-well plates (250,000 A375 cells/well and 300,000 MCF7 cells/well) and 24 hours later medium was replaced by serum-free medium (RPMI supplemented with 100 units/ml penicillin and 100 μg/ml streptomycin). MCF7 cells were exposed for 48 hr to compound 3 at 10 μM concentration, and then stimulated for 5 minutes with 50 ng/ml IGF-1, washed twice with PBS and lysed by boiling sample buffer (10% glycerol, 50 mM Tris-HCl, pH 6.8, 3% SDS, and 5% (3-mercaptoethanol). Equal amounts of protein per lane were separated by 8% SDS-PAGE and transferred to a nitrocellulose membrane (Sartorius AG). Phosphorylated proteins were immunoblotted with anti-phosphoIGF-1R (pIGF-1R), anti-phosphotyrosine-IRS1 (pY-IRS I) and anti-phospho(T308)Akt (pPKB) antibodies. Detection was performed with horseradish peroxidase-conjugated secondary antibody using the ECL system. Blots were then stripped of antibodies, blocked with TBST with 5% low fat milk and re-probed with antibodies detecting both the phosphorylated and the non-phosphorylated corresponding proteins e.g. IGF-1Rβ, IRS1 and PKB.

[4] = test system: human melanoma A375 cells; experiment: Cell death (PARP cleavage) in A375 cells; type: cell-based
Procedure: The effect of compound 5 on IRS1 & IRS2 levels and its effect on IGF1-induced Akt/PKB activation and apoptosis in melanoma A375 cells were tested. Cells were seeded in 6-well plates (150,000 A375 cells/well) and 24 hours later medium was replaced by serum-free medium (RPMI supplemented with 100 units/ml penicillin and 100 μg/ml streptomycin), […], and then stimulated for 5 minutes with 50 ng/ml IGF-1, washed twice with PBS and lysed by boiling sample buffer (10% glycerol, 50 mM Tris-HCl, pH 6.8, 3% SDS, and 5% β-mercaptoethanol). Equal amounts of protein per lane were separated by 8% SDS-PAGE and transferred to a nitrocellulose membrane (Sartorius AG). To detect the inhibition of the Akt/PKB activation, phosphorylated proteins were immunoblotted with anti-phospho(T308)Akt (pT308-PKB) and anti-phospho-Tuberin/TSC2 (pTuberin) antibodies. To visualize cell death induced by compound 5, the intact and the cleaved PARP were immunoblotted with anti-PARP antibody. The changes in the levels of IRS1 and IRS2 were detected with specific antibodies. Detection was performed with horseradish peroxidase-conjugated secondary antibody using the ECL system. Blots were then stripped of antibodies, blocked with TBST with 5% low fat milk and re-probed with antibodies detecting both the phosphorylated and the non-phosphorylated Akt/PKB. […]

T1 sequence (P08069 31-1367): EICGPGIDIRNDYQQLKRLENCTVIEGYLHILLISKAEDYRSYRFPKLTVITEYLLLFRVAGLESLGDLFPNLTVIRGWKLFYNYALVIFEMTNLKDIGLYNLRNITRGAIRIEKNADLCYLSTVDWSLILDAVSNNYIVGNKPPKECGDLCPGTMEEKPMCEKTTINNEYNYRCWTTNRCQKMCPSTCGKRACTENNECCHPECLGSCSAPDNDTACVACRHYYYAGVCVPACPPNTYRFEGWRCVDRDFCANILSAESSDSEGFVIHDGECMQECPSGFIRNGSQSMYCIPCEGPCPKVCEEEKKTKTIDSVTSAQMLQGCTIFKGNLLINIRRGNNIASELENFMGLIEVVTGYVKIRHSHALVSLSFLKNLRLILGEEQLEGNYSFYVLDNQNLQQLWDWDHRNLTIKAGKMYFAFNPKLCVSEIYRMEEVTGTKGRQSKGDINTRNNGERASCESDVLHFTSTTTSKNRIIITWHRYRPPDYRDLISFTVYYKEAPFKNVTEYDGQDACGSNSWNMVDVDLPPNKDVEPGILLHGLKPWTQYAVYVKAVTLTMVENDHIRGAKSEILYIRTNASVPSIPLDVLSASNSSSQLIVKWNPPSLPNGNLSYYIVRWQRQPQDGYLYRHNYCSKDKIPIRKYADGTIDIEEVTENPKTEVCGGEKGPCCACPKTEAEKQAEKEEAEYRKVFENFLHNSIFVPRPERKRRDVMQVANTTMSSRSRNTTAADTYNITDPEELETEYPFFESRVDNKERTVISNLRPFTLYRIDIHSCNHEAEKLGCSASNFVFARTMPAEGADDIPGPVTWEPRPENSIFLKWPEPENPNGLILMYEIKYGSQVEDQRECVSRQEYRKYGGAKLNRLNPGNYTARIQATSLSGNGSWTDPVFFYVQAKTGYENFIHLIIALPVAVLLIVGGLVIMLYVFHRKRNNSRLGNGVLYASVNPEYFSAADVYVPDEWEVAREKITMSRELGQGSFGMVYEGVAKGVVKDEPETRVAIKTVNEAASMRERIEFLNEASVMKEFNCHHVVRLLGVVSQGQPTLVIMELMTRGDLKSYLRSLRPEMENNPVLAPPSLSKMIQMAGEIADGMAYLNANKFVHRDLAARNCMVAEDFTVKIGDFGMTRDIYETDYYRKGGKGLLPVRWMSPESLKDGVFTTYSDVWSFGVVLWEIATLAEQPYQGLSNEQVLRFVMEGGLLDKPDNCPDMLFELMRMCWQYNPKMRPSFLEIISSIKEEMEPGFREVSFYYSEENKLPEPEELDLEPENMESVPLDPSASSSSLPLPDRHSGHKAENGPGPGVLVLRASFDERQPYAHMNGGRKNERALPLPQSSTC

Compound	IC50 [1] [nM]	IC50 [2] [nM]	levels of IRS1 (IRS1; 48 hr, FIG. 3)	time course of effect on IRS1 phosphorylation and levels (IRS1; various time periods, FIG. 5)	IGF1-induced PKB/Akt activation (PKB/Akt)	IC50 [3] [nM]	IC50 (human myeloma CAG cells) [nM]	IGF1-induced auto-phosphorylation of IGF-1R (IGF-1R; 48 hr, 50 ng/ml IGF-1 5 minutes)	duration of the inhibitory effect (IGF-1R)	cell death (PARP cleavage) ([4]; 3 μM, 48 hr, FIG. 6A, 6B)	cell death (PARP cleavage) after washout ([4]; 5 μM for 4 hr, 24 hr following washout, FIG. 6C)
O=c1c(O)cc2cnc(/C=C/c3cc(O)c(O)c(Br)c3)sc-2c1O [Compound 3]	2000	1000	significant decrease	elimination of IRS1 induced by compound 3 is subsequent to IRS1 serine phosphorylation	inhibition of IGF1-induced PKB/Akt activation	1000	1200	significantly inhibited	more than 48 hr	–	–
O=c1c(O)cc2cnc(/C=C/c3ccc(O)c(O)c3Br)sc-2c1O [Compound 5]	–	–	–	–	–	–	–	–	–	induced cell death (PARP cleavage)	enough to trigger a process which leads to cell death
